{"source": "patent US7338977B2", "about": "“Anti-viral compounds” (Aids Care Pharma Limited, priority 2003, dated 2008)", "key": {"[1]": {"target": "T1, viral envelope protein gp120 interaction with the cellular receptor protein CD4 (Human immunodeficiency virus type 1 group M subtype B, UniProt P04578)", "T1 construct": "viral envelope protein gp120", "test": "biochemical", "assay_type": "binding, HIV", "settings": "for activity in words, compared with AC-1: summary of Table 1, both tests", "protocol": "(§1) Two tests were performed: Test 1 was performed using infected blood, while Test 2 used cell cultures.\nAll stocks solutions were made 25 mM in distilled water and tested at same concentrations.\nThe procedure was carried out as follows: • 1 Plastic plates were coated with cellular receptor protein CD4. • 2 The plates were washed well before adding a predetermined, appropriate quantity of viral envelope protein gp120 for binding to CD4. • 3 To see inhibition by compounds, different concentrations were added a few minutes before adding gp120. • 4 The mixture was incubated at 37° C. for binding. • 5 The plates were then flashed well and bound gp120 was detected by reaction with anti-HIV antibodies, incubated for 12 hours at 4° C. • 6 The amount of antibody bound was detected by adding anti-Human antibodies attached to an enzyme horse raddish peroxidase. • 7 After another incubation and wash, the quantity of the enzyme was measured by adding substrate o-phenyl diamine (OPD). • 8 The colour developed was read at 492 nm. • 9 All incubations took three days for adding different reagents. The percentage of inhibition by compounds, was calculated from the standard curve obtained by using different dilutions of gp120 alone. Test 2"}, "wild-type HIV-1 (111a)": {"tested_on": "wild-type HIV-1 (111a)", "test": "Test 2: syncytium formation in HIV-1 infected CEM cell cultures", "assay_type": "cell-based", "settings": "CEM cells, 4 days at 37° C., syncytium formation inhibited by 50%; for EC50: Human immunodeficiency virus 1, CCRF-CEM, 96 h", "protocol": "as §1\nThe results shown in Table 1 for test 2 were obtained by testing cell cultures in accordance with the following procedure.\nCEM cells were suspended at approximately 250,000 cells per milliliter of culture medium and infected with wild-type HIV-1 (111a) at approximately 100 times the 50% cell culture infective dose (CCID50) per milliliter. Then 100 μl of the infected cell suspensions were added to 200 μl microtiter plate wells containing 100 μl of an appropriate dilution of the test compounds. After 4 days incubation at 37° C. the cell cultures were microscopically examined for syncytium formation."}, "HIV": {"tested_on": "HIV", "settings": "cited from earlier work; for REDUCTION IN VIRAL LOAD: patients, drug used on its own"}, "[2]": {"settings": "human, in vivo; cited from earlier work"}, "cell growth": {"tested_on": "cell growth", "settings": "cited from earlier work"}, "HIV-1 [3]": {"tested_on": "HIV-1", "settings": "cells protected from HIV infection, cell cultures; cited from earlier work"}, "HIV-1 [4]": {"tested_on": "HIV-1", "test": "Anti-HIV EC50 in cell cultures (benchmark AZT)", "settings": "in vitro", "excerpt": "The antigen Agp120 assay—the virus related antigen—is related to the number of virus particles produced by measuring glycoprotein gp120 in infected cell cultures.\nThe therapeutic index is selected so as not to damage healthy cells."}, "[5]": {"settings": "cited from earlier work"}}, "data": [{"molecule": "O=C(O)COc1c(O)c2cc(c1O)C(c1ccc(F)cc1)c1cc(c(O)c(OCC(=O)O)c1O)C(c1ccc(F)cc1)c1cc(c(O)c(OCC(=O)O)c1O)C(c1ccc(F)cc1)c1cc(c(O)c(OCC(=O)O)c1O)C2c1ccc(F)cc1", "note": "(centres unmarked) [BC130202A]", "values": [{"measurement": "EC50", "setting": "[1]", "value": 5, "unit": "µM"}, {"measurement": "% inhibition of gp120/CD4 binding", "setting": "[1]; Conc 1.56 um", "value": 19, "unit": "%"}, {"measurement": "% inhibition of gp120/CD4 binding", "setting": "[1]; Conc 3.125 um", "value": 32, "unit": "%"}, {"measurement": "% inhibition of gp120/CD4 binding", "setting": "[1]; Conc 6.25 um", "value": 46, "unit": "%"}, {"measurement": "% inhibition of gp120/CD4 binding", "setting": "[1]; Conc 12.5 um", "value": 56, "unit": "%"}, {"measurement": "% inhibition of gp120/CD4 binding", "setting": "[1]; Conc 25 um", "value": 70, "unit": "%"}, {"measurement": "% inhibition of gp120/CD4 binding", "setting": "[1]; Conc 50 um", "value": 82, "unit": "%"}, {"measurement": "% inhibition of gp120/CD4 binding", "setting": "[1]; Conc 100 um", "value": 90, "unit": "%"}, {"measurement": "activity in words, compared with AC-1", "setting": "[1]", "value": "active"}, {"measurement": "EC50", "setting": "wild-type HIV-1 (111a)", "value": 10, "unit": "µg/mL"}]}, {"molecule": "CC(C)c1nc(CN(C)C(=O)N[C@H](C(=O)N[C@@H](Cc2ccccc2)C[C@H](O)[C@H](Cc2ccccc2)NC(=O)OCc2cncs2)C(C)C)cs1", "note": "[Ritonavir]", "values": [{"measurement": "REDUCTION IN VIRAL LOAD", "setting": "HIV", "value": 99, "unit": "%"}, {"measurement": "SIDE EFFECTS", "setting": "[2]", "value": "diarrhoea nausea,"}]}, {"molecule": "dodecapotassium acetate of p-bromopyrogallol P—F-phenyl tetramer [AC-1]", "values": [{"measurement": "% inhibition of gp120/CD4 binding", "setting": "[1]; Conc 0.39 um", "value": 48, "unit": "%"}, {"measurement": "% inhibition of gp120/CD4 binding", "setting": "[1]; Conc 0.78 um", "value": 55, "unit": "%"}, {"measurement": "% inhibition of gp120/CD4 binding", "setting": "[1]; Conc 1.56 um", "value": 62, "unit": "%"}, {"measurement": "% inhibition of gp120/CD4 binding", "setting": "[1]; Conc 3.125 um", "value": 70, "unit": "%"}, {"measurement": "% inhibition of gp120/CD4 binding", "setting": "[1]; Conc 6.25 um", "value": 82, "unit": "%"}, {"measurement": "% inhibition of gp120/CD4 binding", "setting": "[1]; Conc 12.5 um", "value": 86, "unit": "%"}, {"measurement": "% inhibition of gp120/CD4 binding", "setting": "[1]; Conc 25 um", "value": 91, "unit": "%"}, {"measurement": "% inhibition of gp120/CD4 binding", "setting": "[1]; Conc 50 um", "value": 93, "unit": "%"}, {"measurement": "% inhibition of gp120/CD4 binding", "setting": "[1]; Conc 100 um", "value": 96, "unit": "%"}, {"measurement": "Test 2 EC50", "setting": "wild-type HIV-1 (111a)", "value": 4, "unit": "µg/mL"}]}, {"molecule": "Nc1ccn([C@H]2CC[C@@H](CO)O2)c(=O)n1", "note": "[Zalcitabine]", "values": [{"measurement": "REDUCTION IN VIRAL LOAD", "setting": "HIV", "value": "50–90%"}]}, {"molecule": "Cc1cn([C@H]2C=C[C@@H](CO)O2)c(=O)[nH]c1=O", "note": "[Stavudine]", "values": [{"measurement": "REDUCTION IN VIRAL LOAD", "setting": "HIV", "value": "50–90%"}, {"measurement": "SIDE EFFECTS", "setting": "[2]", "value": "peripheral neuropathy"}]}, {"molecule": "Nc1nc(NC2CC2)c2ncn([C@H]3C=C[C@@H](CO)C3)c2n1", "note": "[Abacavir]", "values": [{"measurement": "REDUCTION IN VIRAL LOAD", "setting": "HIV", "value": "50–90%"}]}, {"molecule": "O=C(O)COc1cc(OCC(=O)O)c2cc1C(c1ccc(F)cc1)c1cc(c(OCC(=O)O)cc1OCC(=O)O)C(c1ccc(F)cc1)c1cc(c(OCC(=O)O)cc1OCC(=O)O)C(c1ccc(F)cc1)c1cc(c(OCC(=O)O)cc1OCC(=O)O)C2c1ccc(F)cc1", "note": "(centres unmarked) [BC070202A]", "values": [{"measurement": "EC50", "setting": "[1]", "value": 75, "unit": "µM"}, {"measurement": "% inhibition of gp120/CD4 binding", "setting": "[1]; Conc 12.5 um", "value": 24, "unit": "%"}, {"measurement": "% inhibition of gp120/CD4 binding", "setting": "[1]; Conc 25 um", "value": 24, "unit": "%"}, {"measurement": "% inhibition of gp120/CD4 binding", "setting": "[1]; Conc 50 um", "value": 31, "unit": "%"}, {"measurement": "% inhibition of gp120/CD4 binding", "setting": "[1]; Conc 100 um", "value": 54, "unit": "%"}, {"measurement": "activity in words, compared with AC-1", "setting": "[1]", "value": "much less active than the compound AC-1"}, {"measurement": "EC50", "setting": "wild-type HIV-1 (111a)", "value": "≥ 20", "unit": "µg/mL"}]}, {"molecule": "Cc1cn([C@H]2C[C@H](N=[N+]=[N-])[C@@H](CO)O2)c(=O)[nH]c1=O", "note": "[Zidovudine]", "values": [{"measurement": "CC50", "setting": "cell growth", "value": "> 1000", "unit": "µM"}, {"measurement": "REDUCTION IN VIRAL LOAD", "setting": "HIV", "value": "50–90%"}, {"measurement": "benefit in treating HIV-infected individuals", "setting": "HIV; used by itself", "value": "no benefits in treating HIV-infected individuals"}, {"measurement": "EC50", "setting": "HIV-1 [3]", "value": "~0.016", "unit": "µM"}, {"measurement": "Therapeutic index (TC50/EC50 ratio)", "setting": "HIV-1 [4]", "value": "> 62,500"}]}, {"molecule": "CC(C)CN(C[C@@H](O)[C@H](Cc1ccccc1)NC(=O)O[C@H]1CCOC1)S(=O)(=O)c1ccc(N)cc1", "note": "[Amprenavir]", "values": [{"measurement": "REDUCTION IN VIRAL LOAD", "setting": "HIV", "value": 99, "unit": "%"}, {"measurement": "SIDE EFFECTS", "setting": "[2]", "value": "severe rash"}]}, {"molecule": "Cc1ccnc2c1NC(=O)c1cccnc1N2C1CC1", "note": "[Nevirapinc]", "values": [{"measurement": "REDUCTION IN VIRAL LOAD", "setting": "HIV", "value": "50–90%"}, {"measurement": "SIDE EFFECTS", "setting": "[2]", "value": "skin reaction"}]}, {"molecule": "dextran sulphate", "values": [{"measurement": "stability after oral intake", "setting": "[5]; before entry into the plasma", "value": "degrades after oral intake before entry into the plasma"}, {"measurement": "oral absorption", "setting": "[5]", "value": "poorly absorbed orally"}]}, {"molecule": "O=C1Nc2ccc(Cl)cc2[C@@](C#CC2CC2)(C(F)(F)F)O1", "note": "[Efavirenz]", "values": [{"measurement": "REDUCTION IN VIRAL LOAD", "setting": "HIV", "value": "50–90%"}, {"measurement": "SIDE EFFECTS", "setting": "[2]", "value": "skin reaction"}]}, {"molecule": "CC(C)Nc1cccnc1N1CCN(C(=O)c2cc3cc(NS(C)(=O)=O)ccc3[nH]2)CC1", "note": "[Delaviridine]", "values": [{"measurement": "REDUCTION IN VIRAL LOAD", "setting": "HIV", "value": "50–90%"}, {"measurement": "SIDE EFFECTS", "setting": "[2]", "value": "skin reaction"}]}, {"molecule": "CC(C)(C)NC(=O)[C@@H]1CN(Cc2cccnc2)CCN1C[C@@H](O)C[C@@H](Cc1ccccc1)C(=O)N[C@H]1c2ccccc2C[C@H]1O", "note": "[Indinavir]", "values": [{"measurement": "REDUCTION IN VIRAL LOAD", "setting": "HIV", "value": 99, "unit": "%"}]}, {"molecule": "Cc1c(O)cccc1C(=O)N[C@@H](CSc1ccccc1)[C@H](O)CN1C[C@H]2CCCC[C@H]2C[C@H]1C(=O)NC(C)(C)C", "note": "[Nelfinavir]", "values": [{"measurement": "REDUCTION IN VIRAL LOAD", "setting": "HIV", "value": 99, "unit": "%"}, {"measurement": "SIDE EFFECTS", "setting": "[2]", "value": "diarrohea, nausea"}]}, {"molecule": "Nc1ccn([C@@H]2CS[C@H](CO)O2)c(=O)n1", "note": "[Lamivudine]", "values": [{"measurement": "SIDE EFFECTS", "setting": "[2]", "value": "gastrointestinal"}]}, {"molecule": "CC(C)(C)NC(=O)[C@@H]1C[C@@H]2CCCC[C@@H]2CN1C[C@@H](O)[C@H](Cc1ccccc1)NC(=O)[C@H](CC(N)=O)NC(=O)c1ccc2ccccc2n1", "note": "[Saquinavir]", "values": [{"measurement": "REDUCTION IN VIRAL LOAD", "setting": "HIV", "value": 99, "unit": "%"}, {"measurement": "SIDE EFFECTS", "setting": "[2]", "value": "loose stools, nausea,"}]}, {"molecule": "O=c1[nH]cnc2c1ncn2[C@H]1CC[C@@H](CO)O1", "note": "[Didanosine]", "values": [{"measurement": "REDUCTION IN VIRAL LOAD", "setting": "HIV", "value": "50–90%"}, {"measurement": "SIDE EFFECTS", "setting": "[2]", "value": "peripheral neuropathy, nausea vomiting, pancreatis"}]}]}
